# Test results reported in patent publication US5391540A, “Substituted pyridine compounds” (Rohm and Haas Company, priority 1993, dated 1995).
# Assays:
# Assay type in all cases: in vivo
# [1] = tested on: Bygr; test: plant injury after spraying emerged plants (Table D); set-up: scale not given here
# Text: (§1) Topsoil (silt loam) is sieved through a screen having 1.27 cm openings. […] This mixture is steam sterilized and then placed in aluminum pans 6.985 cm deep having ten holes in the bottom each 0.635 cm in diameter. The soil mixture is compacted to a depth of 1.27 cm. from the top of the pan. A predetermined number of seeds of each of several dicotyledonous and monocotyledonous annual plant species and/or vegetative propagules for the perennial plant species are placed on the soil and pressed into the soil surface. The seeds and/or vegetative propagules are covered with 1.27 cm of a mixture of 50% topsoil and 50% of a mixture of Canadian sphagnum peat moss, vermiculite and a wetting agent. The pans are then placed on a capillary mat on a greenhouse bench and subirrigated as needed.
# (§2) In the following Table D the legends used to identify the plant species are the same as those used in the preceding Table B.
# [2] = tested on: Rice; test: as above; set-up: scale not given here
# Text: as §1, §2
# [3] = tested on: Corn; test: as above; set-up: scale not given here
# Text: as §1, §2
# [4] = tested on: Grso; test: as above; set-up: scale not given here
# Text: as §1, §2
# [5] = tested on: Cobu; test: as above; set-up: scale not given here
# Text: as §1, §2
# [6] = tested on: Grft; test: as above; set-up: scale not given here
# Text: as §1, §2
# [7] = tested on: Whez; test: as above; set-up: scale not given here
# Text: as §1, §2
# [8] = tested on: Sobe; test: as above; set-up: scale not given here
# Text: as §1, §2
# [9] = tested on: Lacg; test: as above; set-up: scale not given here
# Text: as §1, §2
# [10] = tested on: Mogl; test: as above; set-up: scale not given here
# Text: as §1, §2
# [11] = tested on: Prmi; test: as above; set-up: scale not given here
# Text: as §1, §2
# [12] = tested on: Dobr; test: as above
# Text: Topsoil (silt loam) is sieved through a screen having 1.27 cm openings. In some of the tests the soil was mixed with fertilizer (1225 g/cu. m of 12/5/9 containing isobutylidene diurea), while in other tests the fertilizer was omitted. This mixture is steam sterilized and then placed in aluminum pans 6.985 cm deep having ten holes in the bottom each 0.635 cm in diameter. The soil mixture is compacted to a depth of 1.27 cm. from the top of the pan. A predetermined number of seeds of each of several dicotyledonous and monocotyledonous annual plant species and/or vegetative propagules for the perennial plant species are placed on the soil and pressed into the soil surface. The seeds and/or vegetative propagules are covered with 1.27 cm of a mixture of 50% topsoil and 50% of a mixture of Canadian sphagnum peat moss, vermiculite and a wetting agent. The pans are then placed on a capillary mat on a greenhouse bench and subirrigated as needed. After the plants reach the desired stage (9 to 14 days, 1 to 3 true leaf stage), each pan (except the control pans) is removed to a spraying chamber and sprayed by means of an atomizer, operating at a spray pressure of 170.3 kPa ([…]) at the application rates noted in Table D. In the spray solution is an amount of an emulsifying agent mixture (35% butylamine salt of dodecylbenzenesulfonic acid and 65% tall oil condensed with ethylene oxide in the ratio of 11 mols of ethylene oxide/mol of tall oil) to give a spray solution or suspension. The spray solution or suspension contains a sufficient amount of the candidate chemical in order to give application rates of the active ingredient corresponding to those shown in Table D below while applying a total amount of solution or suspension equivalent to 1870 L/Ha (200 gallons/acre). The pans are returned to the greenhouse and watered as before and the injury to the plants as compared to the control pans is observed at approximately 10-14 days (usually 11 days).
# as §2
# [13] = tested on: Cocklebur; test: Pre-emergent herbicidal activity (Table A); settings: Xanthium strumarium, pre-emergence, Cobu, 11.2 kg/ha, 10-14 days, read-out: herbicidal rating (% inhibition)
# In short: (§3)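 Seeds or perennial propagules set on compacted topsoil, then covered with soil mixed with a known amount of test compound applied in acetone or water carrier. Ratings assigned on a scale based on percent inhibition of each species.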
# [14] = tested on: Downy Brome; test: Pre-emergent herbicidal activity (Table A); settings: Bromus tectorum, pre-emergence, Dobr, 11.2 kg/ha, 10-14 days, read-out: herbicidal rating (% inhibition)
# In short: as §3
# [15] = tested on: Yellow Nutsedge; test: Pre-emergent herbicidal activity (Table A); settings: Cyperus, pre-emergence, Yens, 11.2 kg/ha, 10-14 days, read-out: herbicidal rating (% inhibition)
# In short: as §3
# [16] = tested on: Morningglory; test: Pre-emergent herbicidal activity (Table A); settings: Ipomoea, pre-emergence, Mogl, 11.2 kg/ha, 10-14 days, read-out: herbicidal rating (% inhibition)
# In short: as §3
smiles,measurement,setting,value
"COC(=O)c1c(OC)nc(C(F)(F)Cl)c(C(=O)OC)c1CC(C)C [Compound 30, 3,5-pyridinedicarboxylic acid, 2-(chlorodifluoromethyl)-6-methoxy-4-(2-methylpropyl)-, dimethyl ester]","plant injury rating, Bygr",[1]; 0.5605 kg/ha,0
same,"plant injury rating, Bygr",[1]; 1.1210 kg/ha,0
same,"plant injury rating, Bygr",[1]; 2.8025 kg/ha,2
same,"plant injury rating, Bygr",[1]; 5.6050 kg/ha,1
same,"plant injury rating, Bygr",[1]; 8.4075 kg/ha,1
same,"plant injury rating, Bygr",[1]; 11.2100 kg/ha,1
same,"plant injury rating, Rice",[2]; 0.5605 kg/ha,0
same,"plant injury rating, Rice",[2]; 1.1210 kg/ha,0
same,"plant injury rating, Rice",[2]; 2.8025 kg/ha,0
same,"plant injury rating, Rice",[2]; 5.6050 kg/ha,0
same,"plant injury rating, Rice",[2]; 8.4075 kg/ha,0
same,"plant injury rating, Rice",[2]; 11.2100 kg/ha,0
same,"plant injury rating, Corn",[3]; 0.5605 kg/ha,1
same,"plant injury rating, Corn",[3]; 1.1210 kg/ha,1
same,"plant injury rating, Corn",[3]; 2.8025 kg/ha,2
same,"plant injury rating, Corn",[3]; 5.6050 kg/ha,1
same,"plant injury rating, Corn",[3]; 8.4075 kg/ha,1
same,"plant injury rating, Corn",[3]; 11.2100 kg/ha,2
same,"plant injury rating, Grso",[4]; 0.5605 kg/ha,0
same,"plant injury rating, Grso",[4]; 1.1210 kg/ha,0
same,"plant injury rating, Grso",[4]; 2.8025 kg/ha,1
same,"plant injury rating, Grso",[4]; 5.6050 kg/ha,1
same,"plant injury rating, Grso",[4]; 8.4075 kg/ha,1
same,"plant injury rating, Grso",[4]; 11.2100 kg/ha,1
same,"plant injury rating, Cobu",[5]; 0.5605 kg/ha,0
same,"plant injury rating, Cobu",[5]; 1.1210 kg/ha,0
same,"plant injury rating, Cobu",[5]; 2.8025 kg/ha,1
same,"plant injury rating, Cobu",[5]; 5.6050 kg/ha,1
same,"plant injury rating, Cobu",[5]; 8.4075 kg/ha,2
same,"plant injury rating, Cobu",[5]; 11.2100 kg/ha,2
same,"plant injury rating, Grft",[6]; 0.5605 kg/ha,1
same,"plant injury rating, Grft",[6]; 1.1210 kg/ha,0
same,"plant injury rating, Grft",[6]; 2.8025 kg/ha,2
same,"plant injury rating, Grft",[6]; 5.6050 kg/ha,2
same,"plant injury rating, Grft",[6]; 8.4075 kg/ha,1
same,"plant injury rating, Grft",[6]; 11.2100 kg/ha,1
same,"plant injury rating, Whez",[7]; 0.5605 kg/ha,0
same,"plant injury rating, Whez",[7]; 1.1210 kg/ha,0
same,"plant injury rating, Whez",[7]; 2.8025 kg/ha,0
same,"plant injury rating, Whez",[7]; 5.6050 kg/ha,0
same,"plant injury rating, Whez",[7]; 8.4075 kg/ha,0
same,"plant injury rating, Whez",[7]; 11.2100 kg/ha,0
same,"plant injury rating, Sobe",[8]; 0.5605 kg/ha,0
same,"plant injury rating, Sobe",[8]; 1.1210 kg/ha,1
same,"plant injury rating, Sobe",[8]; 2.8025 kg/ha,1
same,"plant injury rating, Sobe",[8]; 5.6050 kg/ha,1
same,"plant injury rating, Sobe",[8]; 8.4075 kg/ha,1
same,"plant injury rating, Sobe",[8]; 11.2100 kg/ha,1
same,"plant injury rating, Lacg",[9]; 0.5605 kg/ha,1
same,"plant injury rating, Lacg",[9]; 1.1210 kg/ha,0
same,"plant injury rating, Lacg",[9]; 2.8025 kg/ha,2
same,"plant injury rating, Lacg",[9]; 5.6050 kg/ha,2
same,"plant injury rating, Lacg",[9]; 8.4075 kg/ha,1
same,"plant injury rating, Lacg",[9]; 11.2100 kg/ha,1
same,"plant injury rating, Mogl",[10]; 0.5605 kg/ha,1
same,"plant injury rating, Mogl",[10]; 1.1210 kg/ha,1
same,"plant injury rating, Mogl",[10]; 2.8025 kg/ha,1
same,"plant injury rating, Mogl",[10]; 5.6050 kg/ha,1
same,"plant injury rating, Mogl",[10]; 8.4075 kg/ha,1
same,"plant injury rating, Mogl",[10]; 11.2100 kg/ha,2
same,"plant injury rating, Prmi",[11]; 0.5605 kg/ha,0
same,"plant injury rating, Prmi",[11]; 1.1210 kg/ha,0
same,"plant injury rating, Prmi",[11]; 2.8025 kg/ha,1
same,"plant injury rating, Prmi",[11]; 5.6050 kg/ha,0
same,"plant injury rating, Prmi",[11]; 8.4075 kg/ha,0
same,"plant injury rating, Prmi",[11]; 11.2100 kg/ha,0
same,"plant injury rating, Dobr",[12]; 0.5605 kg/ha,0
same,"plant injury rating, Dobr",[12]; 1.1210 kg/ha,0
same,"plant injury rating, Dobr",[12]; 2.8025 kg/ha,0
same,"plant injury rating, Dobr",[12]; 5.6050 kg/ha,0
same,"plant injury rating, Dobr",[12]; 8.4075 kg/ha,0
same,"plant injury rating, Dobr",[12]; 11.2100 kg/ha,0
same,inhibition at 11200 g/ha,[13],25 to 49%
same,inhibition at 11200 g/ha,[14],75 to 100%
same,inhibition at 11200 g/ha,[15],50 to 74%
same,inhibition at 11200 g/ha,[16],75 to 100%
